Laboratory results published in patent publication US9908912B2, “Triclosan derivatives and uses thereof” (priority 2012, dated 2018).
≈ marks a conversion by molar mass, not a printed value.

Tests used:
Ent. cloacae ATCC 13047 = test: MIC in Nutrient Broth No. 2; type: cell-based, Enterobacter cloacae; details: Nutrient Broth No. 2
Procedure: (§1) Bacteria species as indicated in Table 1 were incubated for approximately 24 hours at 37° C.
(§2) The tests were repeated with the addition of inducers. Methyl glycoside was the main inducer used, but other suitable inducers include isopropyl-β-D-thiogalactopyranoside, p-nitrophenyl-α-L-arabinopyranoside and p-nitrophenyl-β-D-xylopyranoside. Concentration of inducer in all cases was 100 μg/ml.

[1] = tested on: Kleb. aerogenes NCTC 88167; test: MIC in Nutrient Broth No. 2; type: cell-based, Klebsiella aerogenes; details: Nutrient Broth No. 2
Procedure: as §1, §2

[2] = tested on: Strep. pyogenes ATCC 19615; test: MIC in Nutrient Broth No. 2; type: cell-based, Streptococcus pyogenes; details: Nutrient Broth No. 2
Procedure: as §1, §2

S. aureus = test: MIC in Nutrient Agar; type: cell-based, Staphylococcus aureus; details: 8 strains; Nutrient Agar containing 0.1 μg/ml of inducer; 37° C., 24 hours
Procedure: (§3) The triclosan-glycosides were added to Nutrient Agar (Oxoid CM0003; Thermofisher Scientific) and organisms were transferred onto the plates surface using a multi-point inoculation device (Oxoid Cathra, Thermofisher Scientific). The latter is essentially a metal plate containing a number of needles. Each needle tip (usually 36 per plate) dips into an organism suspension (in phosphate buffered saline; PBS) and the needles are then moved over the agar plate and lowered onto its surface. In this way the growth of colonies of up to 36 different organisms can be observed on one plate.
(§4) Nutrient Agar No. 2 was prepared according to the manufacturers instructions, autoclaved and cooled to 50° C. Test compounds were then added as filter sterilised solutions (50:50 deionised water:ethanol), to give final concentrations from 256 μg/ml to 0 μg/ml in doubling dilutions. […] The mixtures were swirled then four plates (25 ml molten agar) were poured for each concentration. Plates were dried in a laminar flow cabinet then inoculated with overnight cultures of organisms that had been decimally diluted twice in sterile saline solution (approximately 10^7 cfu/ml) using a multi-point inoculator. Plates were then incubated at 37° C. for 24 hours. MICs were determined as the concentration at which no growth was observed.

Staph. epidermidis = test: MIC in Nutrient Broth No. 2; type: cell-based, Staphylococcus epidermidis; details: 3 strains, Nutrient Broth No. 2
Procedure: as §1, §2

[3] = tested on: Strep. agalactiae OCC 182; test: MIC in Nutrient Broth No. 2; type: cell-based, Streptococcus agalactiae; details: Nutrient Broth No. 2
Procedure: as §1, §2

Kleb. aerogenes = test: MIC in Nutrient Agar; type: cell-based, Klebsiella aerogenes; details: Nutrient Agar containing 0.1 μg/ml of inducer; 37° C., 24 hours
Procedure: as §3, §4

[4] = tested on: Strep. pneumoniae ATCC 6305; test: MIC in Nutrient Broth No. 2; type: cell-based, Streptococcus pneumoniae; details: Nutrient Broth No. 2
Procedure: as §1, §2

[5] = tested on: Staph. saprophyticus ATCC 15305; test: MIC in Nutrient Broth No. 2; type: cell-based, Staphylococcus saprophyticus; details: Nutrient Broth No. 2
Procedure: as §1, §2

[6] = tested on: Crono. sakazakii ATCC 29544; test: MIC in Nutrient Broth No. 2; type: cell-based, Cronobacter sakazakii; details: Nutrient Broth No. 2
Procedure: as §1, §2

Ser. marcescens = test: MIC in Nutrient Agar; type: cell-based, Serratia marcescens; details: Nutrient Agar containing 0.1 μg/ml of inducer; 37° C., 24 hours
Procedure: as §3, §4

Str. agalactiae = test: MIC in Nutrient Agar; type: cell-based, Streptococcus agalactiae; details: Nutrient Agar containing 0.1 μg/ml of inducer; 37° C., 24 hours
Procedure: as §3, §4

Kleb. pneumoniae = test: MIC in Nutrient Agar; type: cell-based, Klebsiella pneumoniae; details: Nutrient Agar containing 0.1 μg/ml of inducer; 37° C., 24 hours
Procedure: as §3, §4

[7] = tested on: Staph. haemolyticus OCC 2223; test: MIC in Nutrient Broth No. 2; type: cell-based, Staphylococcus haemolyticus; details: Nutrient Broth No. 2
Procedure: as §1, §2

Strep. viridans OCC 234 = test: MIC in Nutrient Broth No. 2; type: cell-based, Streptococcus viridans; details: Nutrient Broth No. 2
Procedure: as §1, §2

Ent. faecium = test: MIC in Nutrient Agar; type: cell-based, Enterococcus faecium; details: Nutrient Agar containing 0.1 μg/ml of inducer; 37° C., 24 hours
Procedure: as §3, §4

Str. pneumoniae = test: MIC in Nutrient Agar; type: cell-based, Streptococcus pneumoniae; details: Nutrient Agar containing 0.1 μg/ml of inducer; 37° C., 24 hours
Procedure: as §3, §4

S. epidermidis = test: MIC in Nutrient Agar; type: cell-based, Staphylococcus epidermidis; details: 3 strains; Nutrient Agar containing 0.1 μg/ml of inducer; 37° C., 24 hours
Procedure: as §3, §4

E. hermanii ATCC 33650 = test: MIC in Nutrient Broth No. 2; type: cell-based, Escherichia hermanii; details: Nutrient Broth No. 2
Procedure: as §1, §2

Str. pyogenes = test: MIC in Nutrient Agar; type: cell-based, Streptococcus pyogenes; details: Nutrient Agar containing 0.1 μg/ml of inducer; 37° C., 24 hours
Procedure: as §3, §4

Ent. faecalis = test: MIC in Nutrient Agar; type: cell-based, Enterococcus faecalis; details: Nutrient Agar containing 0.1 μg/ml of inducer; 37° C., 24 hours
Procedure: as §3, §4

Ent. cloacae = test: MIC in Nutrient Agar; type: cell-based, Enterobacter cloacae; details: Nutrient Agar containing 0.1 μg/ml of inducer; 37° C., 24 hours
Procedure: as §3, §4

[8] = tested on: Kleb. pneumoniae ATCC 10031; test: MIC in Nutrient Broth No. 2; type: cell-based, Klebsiella pneumoniae; details: Nutrient Broth No. 2
Procedure: as §1, §2

Ent. aerogenes = test: MIC in Nutrient Agar; type: cell-based, Enterobacter aerogenes; details: Nutrient Agar containing 0.1 μg/ml of inducer; 37° C., 24 hours
Procedure: as §3, §4

Cr. sakazakii = test: MIC in Nutrient Agar; type: cell-based, Cronobacter sakazakii; details: Nutrient Agar containing 0.1 μg/ml of inducer; 37° C., 24 hours
Procedure: as §3, §4

Staph. aureus = test: MIC in Nutrient Broth No. 2; type: cell-based, Staphylococcus aureus; details: 8 strains, Nutrient Broth No. 2
Procedure: as §1, §2

Salmonella = test: MIC in Nutrient Agar; type: cell-based; details: 11 strains; Nutrient Agar containing 0.1 μg/ml of inducer; 37° C., 24 hours
Procedure: as §3, §4

Bacillus subtilis = test: MIC in Nutrient Agar; type: cell-based; details: Nutrient Agar containing 0.1 μg/ml of inducer; 37° C., 24 hours
Procedure: as §3, §4

Hafnia alvei = test: MIC in Nutrient Agar; type: cell-based; details: Nutrient Agar containing 0.1 μg/ml of inducer; 37° C., 24 hours
Procedure: as §3, §4

Ps. aeruginosa = test: MIC in Nutrient Agar; type: cell-based; details: Nutrient Agar containing 0.1 μg/ml of inducer; 37° C., 24 hours
Procedure: as §3, §4

Bacillus cereus = test: MIC in Nutrient Agar; type: cell-based; details: Nutrient Agar containing 0.1 μg/ml of inducer; 37° C., 24 hours
Procedure: as §3, §4

Aer. hydrophila = test: MIC in Nutrient Agar; type: cell-based, Aeromonas hydrophila; details: Nutrient Agar containing 0.1 μg/ml of inducer; 37° C., 24 hours
Procedure: as §3, §4

S. haemolyticus = test: MIC in Nutrient Agar; type: cell-based, Staphylococcus haemolyticus; details: Nutrient Agar containing 0.1 μg/ml of inducer; 37° C., 24 hours
Procedure: as §3, §4

OC[C@H]1O[C@@H](Oc2cc(Cl)ccc2Oc2ccc(Cl)cc2Cl)[C@H](O)[C@@H](O)[C@@H]1O [β-D-Glucoside, triclosan-β-D-glucopyranoside]
MIC (Ent. cloacae ATCC 13047; with inducer 100 μg/ml): 1 mg/L (≈ 2.21 µM)
MIC (Ent. cloacae ATCC 13047; without inducer): 16 mg/L (≈ 35.4 µM)
MIC ([1]; with inducer 100 μg/ml): 4 mg/L (≈ 8.86 µM)
MIC ([1]; without inducer): 32 mg/L (≈ 70.8 µM)
MIC ([2]; with inducer 100 μg/ml): 16 mg/L (≈ 35.4 µM)
MIC ([2]; without inducer): 32 mg/L (≈ 70.8 µM)
MIC (S. aureus): 4 to 8 mg/L
MIC (Staph. epidermidis; with inducer 100 μg/ml): 0.5 to 1 mg/L
MIC (Staph. epidermidis; without inducer): 8 to 16 mg/L
MIC ([3]; with inducer 100 μg/ml): 128 mg/L (≈ 283 µM)
MIC ([3]; without inducer): 256 mg/L (≈ 567 µM)
MIC (Kleb. aerogenes): 32 mg/L (≈ 70.8 µM)
MIC ([4]; with inducer 100 μg/ml): 64 mg/L (≈ 142 µM)
MIC ([4]; without inducer): 128 mg/L (≈ 283 µM)
MIC ([5]; with inducer 100 μg/ml): 8 mg/L (≈ 17.7 µM)
MIC ([5]; without inducer): 64 mg/L (≈ 142 µM)
MIC ([6]; with inducer 100 μg/ml): 8 mg/L (≈ 17.7 µM)
MIC ([6]; without inducer): 64 mg/L (≈ 142 µM)
MIC (Ser. marcescens): >256 mg/L
MIC (Str. agalactiae): >256 mg/L
MIC (Kleb. pneumoniae): 4 mg/L (≈ 8.86 µM)
MIC ([7]; with inducer 100 μg/ml): 0.5 mg/L (≈ 1.11 µM)
MIC ([7]; without inducer): 16 mg/L (≈ 35.4 µM)
MIC (Strep. viridans OCC 234; with inducer 100 μg/ml): 128 mg/L (≈ 283 µM)
MIC (Strep. viridans OCC 234; without inducer): 256 mg/L (≈ 567 µM)
MIC (Ent. faecium): >256 mg/L
MIC (Str. pneumoniae): 128 mg/L (≈ 283 µM)
MIC (S. epidermidis): 8 to 16 mg/L
MIC (E. hermanii ATCC 33650; with inducer 100 μg/ml): 2 mg/L (≈ 4.43 µM)
MIC (E. hermanii ATCC 33650; without inducer): 16 mg/L (≈ 35.4 µM)
MIC (Str. pyogenes): 64 mg/L (≈ 142 µM)
MIC (Ent. faecalis): >256 mg/L
MIC (Ent. cloacae): 16 mg/L (≈ 35.4 µM)
MIC ([8]; with inducer 100 μg/ml): 0.5 mg/L (≈ 1.11 µM)
MIC ([8]; without inducer): 0.5 mg/L (≈ 1.11 µM)
MIC (Ent. aerogenes): 32 mg/L (≈ 70.8 µM)
MIC (Cr. sakazakii): 32 mg/L (≈ 70.8 µM)
MIC (Staph. aureus; with inducer 100 μg/ml): 0.5 to 2 mg/L
MIC (Staph. aureus; without inducer): 4 to 8 mg/L
MIC (Salmonella): 16 to 128 mg/L
MIC (Bacillus subtilis): 256 mg/L (≈ 567 µM)
MIC (Hafnia alvei): 8 mg/L (≈ 17.7 µM)
MIC (Ps. aeruginosa): >256 mg/L
MIC (Bacillus cereus): 256 mg/L (≈ 567 µM)
MIC (Aer. hydrophila): >256 mg/L
MIC (S. haemolyticus): 16 mg/L (≈ 35.4 µM)
